According to ChEMBL document CHEMBL3301361, “Experimental in vitro DMPK and physicochemical data on a set of publicly disclosed compounds”:

Test: in vitro
Conditions: human, plasma

First: COc1cc(/C=C2\SC(=O)NC2=O)ccc1Oc1ccc(C#N)cc1C(F)(F)F
Second: C[C@@H](c1ncncc1F)[C@](O)(Cn1cncn1)c1ccc(F)cc1F [VORICONAZOLE]
The fraction unbound at 5 h of the first is lower: 0.0005 for the first, 0.535 for the second.

First: Cc1ccc(Cl)cc1NC(=O)CCS(=O)(=O)c1ccc(Br)s1
Second: Cc1ccc(CNC(=O)CCS(=O)(=O)c2ccc(Br)cc2)cc1
The fraction unbound at 5 h of the first is lower: 0.0111 for the first, 0.013 for the second.

With `COc1ccc(OC)c(C(O)CN)c1` (stereo not drawn) [DESGLYMIDODRINE] the fraction unbound at 5 h was 0.78.

Same assay, conditions: human, plasma, PPB

First: C=CC1(C)CC(=O)C2(O)C(C)(O1)C(OC(C)=O)C(O)C1C(C)(C)CCC(O)C12C (stereo not drawn)
Second: Nc1nc(OCC2CCC2)nc2c1ncn2[C@@H]1O[C@H](CF)[C@@H](O)[C@H]1O
The fraction unbound at 5 h of the first is lower: 0.16 for the first, 0.228 for the second.

Going from `COc1ccc(-c2nc3ccc(C4=NNC(=O)CC4C)cc3[nH]2)cc1` (stereo not drawn) [PIMOBENDAN] to `Cc1ccc(-c2cc(C(=O)NCc3cn(C)nc3C)c3cc(Br)ccc3n2)cc1`, the fraction unbound at 5 h falls from 0.11 to 0.0063.

First: Cc1ncc(NC(=O)c2cc(NC(=O)c3cc(F)cc(Cl)c3)ccc2Cl)s1
Second: Cc1ncc(NC(=O)c2cc(NC(=O)c3cccc(Cl)c3)ccc2Cl)s1
The fraction unbound at 5 h of the first is higher: 0.004 for the first, 0.002 for the second.

First: COc1ccc(N(C(=O)c2ccccc2)C(C(=O)NC2CCCC2)c2ccccc2F)c(OC)c1 (stereo not drawn)
Second: O=C(c1ccccc1)N1CCC(c2nc3ccccc3o2)CC1
The fraction unbound at 5 h of the first is lower: 0.0033 for the first, 0.0457 for the second.

Compared with `COc1cc(OC)c(S(=O)(=O)NCc2ccccc2N2CCC(COC(=O)CCC(=O)O)CC2)cc1NC(=O)CCC(=O)O`, `COc1cc(OC)c(S(=O)(=O)NCc2ccccc2N2CCC(C(=O)O)CC2)cc1NC(=O)CCC(=O)O` is higher in fraction unbound at 5 h: 0.151 for the first, 0.194 for the second.

Going from `O=C(/C=C/c1ccccc1Cl)Nc1ccc2c(c1)C(=O)NC2=O` to `O=C(Nc1ccc(Cl)c(C(=O)Nc2cncs2)c1)c1cccc(C(F)(F)F)c1`, the fraction unbound at 5 h falls from 0.0948 to 0.004.

Compared with `CN[C@@H](C)C(=O)N[C@H](C(=O)N[C@H]1CCN(CCCc2ccccc2)C1)C1CCCCC1`, `O=C(NCC12CC3CC(CC(C3)C1)C2)c1cc(C(=O)N2CC3CNCC(C2)O3)ccc1Cl` is lower in fraction unbound at 5 h: 0.36 for the first, 0.309 for the second.

Compared with `COCCNC(=O)c1ccc(Nc2ncc3cc(-c4cnccc4C)ccc3n2)cc1`, `Cc1ncc(NC(=O)c2cc(NC(=O)c3cccc(C(F)(F)F)c3)ccc2C)s1` is lower in fraction unbound at 5 h: 0.0262 for the first, 0.0119 for the second.

First: COCCC(Oc1ncnc2c1cnn2-c1ccccc1OC)C(=O)Nc1ccc(C)cn1 (stereo not drawn)
Second: COc1cnc(-c2ccccn2)nc1N(C)C
The fraction unbound at 5 h of the first is lower: 0.139 for the first, 0.163 for the second.

Going from `O=C(O)c1ccc2nc(C(F)(F)F)[nH]c2c1` to `CC(C)(C)COc1ccc(-n2cc(C(=O)O)cn2)cc1C#N`, the fraction unbound at 5 h falls from 0.101 to 0.0224.

Going from `O=c1[nH]cnc2scc(-c3cccs3)c12` to `O=C(Cc1cccs1)Nc1ccon1`, the fraction unbound at 5 h rises from 0.0111 to 0.563.

First: CCOc1cc2ncc(C(N)=O)c(Nc3cccc(Cl)c3Cl)c2cc1N1CCN(C(C)=O)CC1
Second: CCOc1cc2ncc(C(N)=O)c(Nc3cccc(Cl)c3Cl)c2cc1N1CCN(CC)CC1
The fraction unbound at 5 h of the first is higher: 0.0968 for the first, 0.0183 for the second.

Going from `COc1cccc(-c2cc3c(N[C@H]4CCCNC4)ncc(C(N)=O)c3s2)c1` to `CN1CCN(c2ccc3ncc(C(N)=O)c(Nc4cccc(Cl)c4Cl)c3c2)CC1`, the fraction unbound at 5 h rises from 0.0437 to 0.0457.

First: CNC(=O)c1[nH]cnc1C(=O)Nc1ccc(Cl)cc1
Second: CCNC(=O)c1cc2c(-n3ccc(C(F)(F)F)n3)c(-c3cncc(C(=O)NC)c3)cnc2[nH]1
The fraction unbound at 5 h of the first is lower: 0.0268 for the first, 0.148 for the second.

First: CCNC(=O)c1cc2c(-n3ccc(C(F)(F)F)n3)c(-c3cncc(C(N)=O)c3)cnc2[nH]1
Second: CC(=O)Nc1ccc2ccn(-c3cc(NCCN4CCOCC4)n4ncc(C#N)c4n3)c2c1
The fraction unbound at 5 h of the first is higher: 0.36 for the first, 0.112 for the second.

First: CCN(CC)CCOc1ccc2c(c1)C(=O)c1cc(OCCN(CC)CC)ccc1-2 [TILORONE]
Second: COc1ccc(S(=O)(=O)N2CCC[C@H](n3cc(C)c(=O)[nH]c3=O)C2)cc1Oc1cccc(Cl)c1
The fraction unbound at 5 h of the first is higher: 0.517 for the first, 0.0251 for the second.

For `NS(=O)(=O)c1ccc(N2N=C(c3ccc(Br)cc3)CC2c2ccc(F)cc2)cc1` (stereo not drawn), the fraction unbound at 5 h was 0.105.
